Assay results reported in patent publication EP4700040A1, “PEPTIDE AND LUMINESCENT COMPLEX CONTAINING SAME” (Shenzhen Loggene Life Science & Technology Co., Ltd., priority 2023, dated 2024).

Key:
Format in all cases: biochemical, human
[1] = tested on: PCT; assay: Signal-to-noise ratio and linear range for PCT detection, purified fusion proteins (Example 3); design: key to luminescence value: luminescence normalized against the background value; conditions: for Signal-to-noise ratio at 1000 pg/ml: large subunit 100 nM, small subunit fusion 180 nM, CTZ-h 25 µM, 140 s; for signal-to-noise ratios in luciferase dual-antibody complementary activation for PCT detection: statement in words on Table 3 and Figure 2
Procedure: Test Methods: • (1) MBP-PCT protein was diluted with PBSAD in 10-fold gradient starting from 100 ng/ml, with 8 gradients in total, and 10 µl was added per well; • (2) The large subunit-SCFV5 fusion protein was diluted with PBSA to 100 nM, and 10 µl was added per well; • (3) Different rSCFV18-small subunit mutant fusion proteins were diluted with PBSA to 180 nM, and 10 µl of each was added per well; • (4) The plate was mixed slightly and incubated at 37°C for 10 min; and • (5) 50 µl of Obuffer 6.37-3 containing 25 µM of CTZ-h was added, and after 140 s, the luminescence value was detected. The results are shown after normalization against the background value.

[2] = tested on: PCT; assay: as above; design: key: luminescence normalized against the background value; conditions: PCT 3.3 (pg/ml); normalized against the background value
[3] = tested on: PCT; assay: Luciferase dual-antibody complementary activation assay for PCT detection, clone supernatants, retest with CTZ-h (Example 1); conditions: for Signal-to-noise ratio: RLU antigen+/RLU antigen-, MBP-PCT 3.3 ng/ml, CTZ-h; for PCT+: luminescence signal value with MBP-PCT 3.3 ng/ml, large subunit-rSCFV5 50 nM, supernatant; for PCT+ / PCT-: retest CTZ-h 25 µM, read after 60 s; for PCT-: luminescence signal value, background control PBSAD without PCT
Procedure: In order to improve the signal-to-noise ratio and complementary activity of the luciferase dual-antibody complementary activation assay, a series of complementary luciferase small subunits were prepared in this example. Large subunit-rSCFV5 fusion protein (SEQ ID NO: 87) was kept unchanged, and the small subunit sequence of the rSCFV18-small subunit P114 fusion protein (SEQ ID NO: 88) was modified by semi-randomization to prepare rSCFV18-small subunit mutant fusion proteins. Based on the sequence of small subunit P114, and with reference to the 3D structure of complementary luciferase, computer-aided sequence design was employed to generate a library with a theoretical diversity of 2.49*10^6. Primers were designed for PCR amplification using the plasmid pComb3x of rSCFV18-small subunit P114 fusion protein as a template. Subsequently, an expression vector library was constructed by means of restriction digestion and ligation (SfiI, NheI), and a semi-random amino acid mutation library was introduced into the small subunit position and transformed into HB2151 competent cells, yielding a library capacity of 7.6*10^9. The 100 plates were spread, and 9,500 single clones were picked and inoculated into 600 µL of 2YTA medium, followed by incubation at 37°C with shaking at 250 rpm for 2 h. When the bacterial density reached approximately OD600 = 0.6~1.0, IPTG was then added to a final concentration of 1 mM, and the culture was further incubated at 30°C with shaking at 250 rpm for 20 h. The next day, the bacteria were collected by centrifugation at 4°C, 4,500g for 10min. The supernatant was discarded, and the precipitate was resuspended with 200µl of PBS containing polymyxin B at a final concentration of 20,000 u/ml. The suspension was incubated at room temperature with shaking at 100rpm for 1h, and then centrifuged at 4500g for 10min, and the supernatant was used for the test.
Test Methods: • (1) The concentration of large subunit-rSCFV5 fusion protein was diluted to 50 nM, and 15 µl was added per well; • (2) MBP-PCT fusion protein was diluted to 3.3 ng/ml with PBSAD, and 15 µl was added per well. The background control was PBSAD, and 10 µl was added per well; • (3) HB2151 strain containing expression plasmids with different small subunit were induced by 1 mM of IPTG at 30°C overnight, then treated with polymyxin B for 1.5 h, and centrifuged to collect the supernatant, and 2.5 µl supernatant was added per well; • (4) The above three components were slightly mixed, incubated at 37°C for 7 min, and Obuffer 6.37-3 containing Furimazine at a concentration of 25 µM was added, and after 80 s, the luminescence signal value was detected using a bioluminescence detector; and • (5) Clones with RLU higher than 10,000 and a signal-to-noise ratio (RLU antigen+/RLU antigen-) higher than that of the rSCFV18-small subunit P114 fusion protein were selected for retesting. The substrate was replaced with CTZ-h for retesting. Obuffer 6.37-3 containing CTZ-h at a concentration of 25 µM was added, and after 60 s, the luminescence signal value was detected using a bioluminescence detector.

[4] = tested on: PCT; assay: Complementation of purified rSCFV18-small subunit mutant fusion protein with large subunit-rSCFV5 fusion protein, PCT gradient (Example 2); conditions: for luminescence value: CTZ-h 25 µM, 20 s; for Signal-to-noise ratio at 1000 pg/ml: PCT 1000 pg/ml versus 0
Procedure: Protein expression and purification of small subunit mutants: The strains containing plasmids of different small subunits inTable 2, prepared in Example 1, were inoculated into 200ml of 2YTA medium and cultured at 37°C with shaking at 250 rpm for about 3h. When the OD600 reached 1.0, IPTG was added to a final concentration of 1mM, and the culture was further incubated at 30°C with shaking at 250rpm for 20h. The culture were centrifuged at 5,000g for 10min, and the precipitate was resuspended with 10ml of PBS, added with polymyxin B to 20,000u/ml. The suspension was inverted and mixed at room temperature for 1h, and centrifuged at 10,000g to collect the supernatant. The rSCFV18-small subunit mutant fusion protein was purified according to the standard procedure for his-tag protein purification using Ni-NTA resin.
In the same tube, the large subunit-rSCFV5 fusion protein was diluted with PBSA to 50 nM; rSCFV18-small subunit mutant fusion protein was diluted to 90 nM, mixed well, and then 22 µl was added per well; the MBP-PCT fusion protein was diluted in 3-fold gradient with PBSAD (in pg/ml), with 8 gradients in total, 10µl was added per well, and the background control was PBSAD and 10 µl was added per well; the plate was mixed with slight shaking and incubated at 37°C for 6 min, 50 µl of Obuffer 6.37-3 containing 25 µM of CTZ-h then was added, and after 20 s, the luminescence value was detected.

[5] = PCT 100 (pg/ml), normalized against the background value
[6] = PCT 1000 (pg/ml), normalized against the background value
[7] = PCT 10000 (pg/ml), normalized against the background value
[8] = PCT 100000 (pg/ml), normalized against the background value
[9] = PCT 0 pg/ml (background control PBSAD)
[10] = PCT 1000 pg/ml, large subunit 50 nM, small subunit fusion 90 nM

| signal-to-noise ratios in luciferase dual-antibody complementary activation for PCT detection [1] | Signal-to-noise ratio [3] | PCT+ [3] | PCT- [3] | Sequence | luminescence value ([1]; PCT 0, background, normalized) | luminescence value [1, 5] | luminescence value [1, 6] | luminescence value [1, 7] | luminescence value [1, 8] | Signal-to-noise ratio at 1000 pg/ml [1] | luminescence value [2] | luminescence value [4, 9] | luminescence value ([4]; PCT 1.37 pg/ml) | luminescence value ([4]; PCT 4.12 pg/ml) | luminescence value ([4]; PCT 12.35 pg/ml) | luminescence value ([4]; PCT 37.04 pg/ml) | luminescence value ([4]; PCT 111.1 pg/ml) | luminescence value ([4]; PCT 333.3 pg/ml) | Signal-to-noise ratio at 1000 pg/ml [4] | luminescence value [4, 10] |
| --- | --- | --- | --- | --- | --- | --- | --- | --- | --- | --- | --- | --- | --- | --- | --- | --- | --- | --- | --- | --- |
| higher signal-to-noise ratios | 67.7 | 31936 | 465 | VEGYRLFDKKW [RB239] | 5000 | 11004 | 57648 | 466004 | 2167580 | 11.5 | 5622 | 288 | 301 | 332 | 407 | 590 | 1318 | 3364 | 31.1 | 8952 |
| – | 43.7 | 35245 | 788 | VEGYRLFDRKL [RB135] | 5000 | 11916 | 67860 | 536667 | 1936894 | 13.6 | 5698 | 380 | 367 | 422 | 575 | 943 | 2137 | 5480 | 40.0 | 15181 |
| higher signal-to-noise ratios | 38.2 | 47227 | 1206 | VEGYRLFEKVW [RB085] | 5000 | 11950 | 69595 | 554514 | 1830312 | 13.9 | 5486 | 337 | 384 | 445 | 556 | 932 | 2102 | 5551 | 45.8 | 15446 |
| higher signal-to-noise ratios | 12.2 | 3993 | 302 | VEGYRLFNKEW [RB284] | 5000 | 7039 | 24677 | 187742 | 861878 | 4.9 | 5288 | – | – | – | – | – | – | – | – | – |

Further lines, the sequence ahead of its results:

| Sequence | signal-to-noise ratios in luciferase dual-antibody complementary activation for PCT detection [1] | Signal-to-noise ratio [3] | PCT+ [3] | PCT- [3] | luminescence value ([1]; PCT 0, background, normalized) | luminescence value [1, 5] | luminescence value [1, 6] | luminescence value [1, 7] | luminescence value [1, 8] | Signal-to-noise ratio at 1000 pg/ml [1] | luminescence value [2] | luminescence value [4, 9] | luminescence value ([4]; PCT 1.37 pg/ml) | luminescence value ([4]; PCT 4.12 pg/ml) | luminescence value ([4]; PCT 12.35 pg/ml) | luminescence value ([4]; PCT 37.04 pg/ml) | luminescence value ([4]; PCT 111.1 pg/ml) | luminescence value ([4]; PCT 333.3 pg/ml) | Signal-to-noise ratio at 1000 pg/ml [4] | luminescence value [4, 10] |
| --- | --- | --- | --- | --- | --- | --- | --- | --- | --- | --- | --- | --- | --- | --- | --- | --- | --- | --- | --- | --- |
| VDGWRLHEKIS [RA141] | higher signal-to-noise ratios | 65.1 | 30623 | 463 | 5000 | 8685 | 42762 | 333241 | 1399433 | 8.6 | 5414 | – | – | – | – | – | – | – | – | – |
| VEGWRLHEKIS [RA116] | higher signal-to-noise ratios | 45.5 | 55957 | 1204 | 5000 | 11673 | 69976 | 515360 | 1784513 | 14.0 | 5301 | 362 | 406 | 473 | 602 | 1212 | 2700 | 7341 | 56.6 | 20492 |
| VSGWRIHEKIS [RA120] | higher signal-to-noise ratios | 36.9 | 81063 | 2139 | 5000 | 13450 | 90072 | 694625 | 1999707 | 18.0 | 5257 | – | – | – | – | – | – | – | – | – |
